The source made the active and inactive calls.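 The calls were made as follows: active = AC50 no more than ten times the top concentration tested, that is within one log above it; inconclusive = flat curve fit with activity between 30% and 70%, or invalid poor fit; inactive = AC50 beyond ten times the top tested dose.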
What follows are compounds tested on S. cerevisiae Mot1-301 ts growth rescue, BacTiter-Glo ATP luminescence (assay: restored Mot1-301 yeast growth at 38.5C – whole organism, S. cerevisiae, Mot1-301 ts mutant, luminescence, dose retest, SUMOylation pathway inhibitor project, confirmation (AID 463204);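 also: growth at restrictive 38.5 degrees C of Mot1-301 OY566 strain; actives raise luminescence by restoring growth of the ts mutant at high temperature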).
`CCOC(=O)c1oc2c(c1C)C(=O)CCC2` was tested, and the AC50 was > 42 µM (inactive). In the case of `c1coc(C2OCC3(CO2)COC(c2ccco2)OC3)c1` (stereo not given), the AC50 was > 42 µM (inactive). For `COCCn1c(C)cc(C(=O)CN2C(=O)NC3(CCCCCCC3)C2=O)c1C`, the AC50 was > 42 µM (inactive). With `O=c1[nH]cnc2ccc([N+](=O)[O-])cc12` the AC50 was > 42 µM (inactive). For `O=C(CC(c1ccccc1)c1ccccc1)NCCOCc1ccccc1`, the AC50 was > 42 µM (inactive). In the case of `O=S(=O)(Nc1ccc(N2CCOCC2)cc1)c1cccs1`, the AC50 was > 42 µM (inactive). For `C/C(N)=C(/C#N)C(=O)CSc1nnc(-c2ccccc2)n1C`, the AC50 was > 42 µM (inactive). `CC1=Nc2ccc(C)cc2N(Cc2ccccc2)C(=O)C1` was tested, and the AC50 was > 42 µM (inactive). `COc1cccc(Nc2nc(C)nc3c2oc2ccccc23)c1` was tested, and the AC50 was > 42 µM (inactive). In the case of `CC(=O)Nc1cccc(OCC(O)Cn2c(C)nc3ccccc32)c1` (stereo not given), the AC50 was > 42 µM (inactive). In the case of `CCN(CC)S(=O)(=O)c1cc(NC(=O)COC(=O)CCc2nc3ccccc3s2)ccc1C`, the AC50 was > 42 µM (inactive). For `CCc1nnc(NC(=O)CSc2nc3c(cc2C#N)CCCC3)s1`, the AC50 was > 42 µM (inactive). With `COc1cc(C(=O)NCCOc2cc(C)cc(C)c2)cc(OC)c1OC` the AC50 was > 42 µM (inactive). In the case of `CCN(CC)c1nc(Nc2ccc(Cl)cc2)nc(OCC#N)n1`, the AC50 was > 42 µM (inactive). With `COC(=O)c1ccccc1SC(CC(=O)c1ccccc1)c1ccc(F)cc1` (stereo not given) the AC50 was > 42 µM (inactive). `CCOc1ccccc1NC(=O)CSc1nc(N)c(C#N)cc1C#N` was tested, and the AC50 was > 42 µM (inactive). With `CCC1SC2=NC(C)=C(C(=O)OCCOC)C(c3ccc(C(=O)OC)cc3)N2C1=O` (stereo not given) the AC50 was > 42 µM (inactive). With `O=C(NCCCn1ccnc1)Nc1cccc2ccccc12` the AC50 was > 42 µM (inactive). In the case of `CCOC(=O)c1oc2cc(OC(C)=O)ccc2c(=O)c1-c1ccc(OC)c(OC)c1`, the AC50 was > 42 µM (inactive). With `COCCn1c(=NC(=O)c2ccc(S(=O)(=O)N3CCOCC3)cc2)sc2cc(S(N)(=O)=O)ccc21` the AC50 was > 42 µM (inactive). With `CC1(C)CC(=O)C(C=Nc2ccc(O)c(N=CC3=C(O)CC(C)(C)CC3=O)c2)=C(O)C1` the AC50 was > 42 µM (inactive). In the case of `Cc1ccc(S(=O)(=O)NCC(=O)OCC(=O)c2ccc(Br)s2)cc1`, the AC50 was > 42 µM (inactive). `COC(=O)c1ccc2[nH]c(C(C)(C)O)c(C)c2c1` was tested, and the AC50 was > 42 µM (inactive). With `CC(NC(=O)c1cnc2n(c1=O)CCS2)c1ccccc1` (stereo not given) the AC50 was > 42 µM (inactive). With `O=S(=O)(Nc1ccc(-c2nc3cccnc3s2)cc1)c1cc(F)ccc1F` the AC50 was > 21 µM (inactive). In the case of `CCOC(=O)c1cc2sc(C)cc2n1CC(=O)Nc1ccc2c(c1)OCCO2`, the AC50 was > 42 µM (inactive). In the case of `CC(=O)c1c(N)[nH]c(-c2ccccc2)nc1=S`, the AC50 was > 42 µM (inactive). With `Cc1cc(C)c2c(Cn3ccnc3)cc(=O)oc2c1` the AC50 was > 42 µM (inactive). With `O=S(=O)(c1ccc(C2CCCCC2)cc1)N1CCCC1` the AC50 was > 42 µM (inactive). In the case of `COc1ccc(/C=N/NC(=O)CCC(=O)Nc2ccccc2)cc1OC`, the AC50 was > 42 µM (inactive). For `CC(C)(C)c1cc(NCCCn2ccnc2)n2ncc(-c3ccc(Cl)cc3)c2n1`, the AC50 was 5.57 µM. With `O=C(O)CCc1ccc(-c2ccccc2)n1NC(=O)c1cccs1` the AC50 was > 42 µM (inactive). With `CC(NC(=O)C12CC3CC(CC(O)(C3)C1)C2)c1ccccc1` (stereo not given) the AC50 was > 42 µM (inactive). `CCc1cc(/C(Cc2ccccn2)=N\O)c(O)cc1O` was tested, and the AC50 was > 42 µM (inactive). In the case of `COc1ccc(-c2csc(Nc3cc(C)ccn3)n2)cc1C`, the AC50 was > 42 µM (inactive). With `CCN(CC)S(=O)(=O)c1ccc(NC(=O)C(C)N(c2ccccc2)S(C)(=O)=O)cc1` (stereo not given) the AC50 was > 42 µM (inactive). For `CCn1c(SCc2nc3ccccc3[nH]2)nnc1-c1cccnc1`, the AC50 was > 42 µM (inactive). With `COc1cc2c(cc1OC)C(c1ccc(SC)cc1)CC(=O)N2` (stereo not given) the AC50 was > 42 µM (inactive). With `O=C(NC(=S)Nc1ccccc1N1CCCC1)c1ccc([N+](=O)[O-])cc1` the AC50 was > 42 µM (inactive). `O=C(Nc1cc(F)ccc1F)C1CCCO1` (stereo not given) was tested, and the AC50 was > 42 µM (inactive). With `COc1ccc2c(Cl)c(C(=O)NN3CCN(C)CC3)sc2c1` the AC50 was > 42 µM (inactive). In the case of `CCOc1ccccc1CN1CCN(Cc2ccon2)CC1CCO` (stereo not given), the AC50 was > 42 µM (inactive). For `Oc1c(Br)cc(Cl)cc1C=Nc1ccccc1Br`, the AC50 was 4.15 µM. In the case of `COc1ccc(C2C(C(C)=O)=C(O)C(=O)N2CCO)c(OC)c1` (stereo not given), the AC50 was > 42 µM (inactive). For `O=c1[nH][nH]c(C(F)(F)F)c1C=NCc1cccs1`, the AC50 was > 42 µM (inactive). For `O=C(NCc1ccccc1)c1cccc(COc2ccc(Cl)cc2)c1`, the AC50 was > 42 µM (inactive). In the case of `CCN(CC)S(=O)(=O)c1ccc(C(=O)NCCc2cc3c(OC)ccc(OC)c3[nH]c2=O)cc1`, the AC50 was > 42 µM (inactive). With `CC1(C)NC(=O)N(CC(=O)O)C1=O` the AC50 was > 42 µM (inactive). For `Cc1nn(C)c(Cl)c1CN1CCN(CCC(C)C)C(CCO)C1` (stereo not given), the AC50 was > 42 µM (inactive). In the case of `Cc1cccc(N/N=C/c2c(O)[nH]c(=S)[nH]c2=O)c1`, the AC50 was > 42 µM (inactive). `COc1cc2c(cc1OC)CN(C(=O)Cc1c(F)cccc1Cl)CC2` was tested, and the AC50 was > 42 µM (inactive). `Cc1n[nH]c(C)c1S(=O)(=O)N(CC(=O)NC1CCCC1)c1ccc(C(C)C)cc1` was tested, and the AC50 was > 21 µM (inactive). In the case of `Cc1cc(C(=O)NN)n[nH]1`, the AC50 was > 42 µM (inactive). For `Cc1cc(/C=C2\C(=O)NC(=O)N(c3ccccc3F)C2=O)c(C)n1-c1cc(C(=O)O)cc(C(=O)O)c1`, the AC50 was > 42 µM (inactive). In the case of `O=C(COC(=O)c1ccccc1SCC(=O)N1CCCC1)NC1CCCCC1`, the AC50 was > 42 µM (inactive). `COc1cc(CN2CCN(c3ncccn3)CC2)cc(OC)c1` was tested, and the AC50 was > 42 µM (inactive). In the case of `COc1cc(C(C2=C(O)CC(C)(C)CC2=O)C2C(=O)CC(C)(C)CC2=O)cc(OC)c1OC` (stereo not given), the AC50 was > 42 µM (inactive). With `Cc1cc(C)cc(C(=O)Oc2cc(C)[nH]c(=O)c2[N+](=O)[O-])c1` the AC50 was > 42 µM (inactive). `COc1ccc2c(c1)[C@H]1[C@H](CO2)[C@H](c2ccccc2)[C@]2(C)C(=O)Nc3cc(F)ccc3C(=O)N12` showed an AC50 of 7.87 µM. With `Cc1ccc(N/N=C2/CCCNC2=O)cc1` the AC50 was > 42 µM (inactive). In the case of `COc1ccc(C(=O)O/N=C(\N)c2ccccc2)cc1OC`, the AC50 was > 42 µM (inactive). With `COc1ccc(CN2CCCCCC2)cc1` the AC50 was > 42 µM (inactive). In the case of `COc1ccc(CNS(=O)(=O)c2ccc3c(c2)CCN3C(=O)C2CCC2)cc1`, the AC50 was > 42 µM (inactive). With `COc1cccc(C2/C(=C(/O)c3ccccc3)C(=O)C(=O)N2Cc2ccco2)c1` (stereo not given) the AC50 was > 42 µM (inactive). `CC(C)C(O)(C(=O)NNc1ccccc1)C(C)C` was tested, and the AC50 was > 42 µM (inactive). In the case of `Cc1cccc(/C=N/NC(=O)Cc2cccs2)c1`, the AC50 was > 42 µM (inactive). `CC(=O)c1ccc(NC(=O)CSc2nnc(-c3ccco3)o2)cc1` was tested, and the AC50 was > 42 µM (inactive). For `CCn1nc(CC(=O)Nc2ccc(-n3cnnn3)c(C)c2)c2ccccc2c1=O`, the AC50 was > 42 µM (inactive). With `COC(=O)C1C(c2ccc(OC)c(OC)c2)NC(c2ccc(OC)c(OC)c2)C(C(=O)OC)S1(=O)=O` (stereo not given) the AC50 was > 42 µM (inactive). In the case of `O=C1CC(c2ccccc2)c2ccc(O)cc2O1` (stereo not given), the AC50 was > 42 µM (inactive). In the case of `O=C(OCc1nnc(-c2ccccc2)o1)c1ccc([N+](=O)[O-])o1`, the AC50 was 4.12 µM. For `Oc1c(Br)cc(Br)cc1/C=N/N1CCN(Cc2ccccc2)CC1`, the AC50 was 1.78 µM. In the case of `O=C(NCC(=O)N(c1ccccc1)C(C(=O)NCC1CCCO1)c1ccccc1)c1cccs1` (stereo not given), the AC50 was > 42 µM (inactive). For `Cc1nc(CC(=O)N/N=C/c2ccc(OCC(=O)O)cc2)cs1`, the AC50 was > 42 µM (inactive). `COc1ccc(C(=O)CC(=O)C(=O)Nc2ccc(C)c(Cl)c2)cc1` was tested, and the AC50 was > 42 µM (inactive). With `COC(=O)c1ccc(SCC(=O)N2CCC(C)CC2)c([N+](=O)[O-])c1` the AC50 was > 42 µM (inactive). In the case of `COc1ccccc1CNC(=O)C(C)Sc1ccc(C)cc1` (stereo not given), the AC50 was > 42 µM (inactive). `Cc1ccccc1Cn1cc(NC(=O)c2cc3nc(-c4ccco4)cc(C(F)(F)F)n3n2)cn1` was tested, and the AC50 was > 42 µM (inactive). `Cc1noc(C)c1Cc1ccc(O)cc1` was tested, and the AC50 was > 42 µM (inactive). For `Cc1ccc(NC(=S)NC(NC(=O)c2ccccc2C)C(Cl)(Cl)Cl)c(C)c1` (stereo not given), the AC50 was > 42 µM (inactive). In the case of `COc1ccc(OC)c(CCNC(=O)c2ccc3c(c2)N(Cc2ccc(F)cc2)CCS3)c1`, the AC50 was > 42 µM (inactive). With `CC(=O)Nc1cc2nn(-c3ccccc3)nc2cc1Cl` the AC50 was > 42 µM (inactive). For `CCOCCCNC(=O)C(c1ccc(OC)cc1)N(Cc1cccs1)C(=O)c1ccccn1` (stereo not given), the AC50 was > 42 µM (inactive). In the case of `COc1ccc(CCNC(=O)c2cc(-c3ccco3)on2)cc1OC`, the AC50 was > 42 µM (inactive). With `Nc1nc2ccccc2cc1-c1cccs1` the AC50 was > 42 µM (inactive). With `CNC(=O)c1ccccc1NC(=O)c1c(O)c2c([nH]c1=O)CCCC2` the AC50 was > 42 µM (inactive). With `CCOP(=O)(OCC)C(NC(=O)c1cccc(C)c1)C(Cl)(Cl)Cl` (stereo not given) the AC50 was > 42 µM (inactive). In the case of `Cn1c(=O)c2c(ncn2CC(=O)N2CCCCCC2)n(C)c1=O`, the AC50 was > 42 µM (inactive). With `COc1ccc(Cl)cc1NC(=O)C1CCCN(c2cc(C)nc3ncnn23)C1` (stereo not given) the AC50 was > 42 µM (inactive). `FC(F)(F)c1nc2ccccc2n2c(-c3ccc(Cl)cc3Cl)nnc12` was tested, and the AC50 was > 42 µM (inactive). In the case of `CC1(C)CNc2cc([N+](=O)[O-])ccc2S1`, the AC50 was 27.7 µM. In the case of `COc1cccc(CN2CCN(C(=O)c3cccc4ccccc34)CC2)c1OC`, the AC50 was > 42 µM (inactive). `COc1ccccc1/C=C/C(=O)N1CCc2cc(OC)c(OC)cc2C1C` (stereo not given) was tested, and the AC50 was > 42 µM (inactive). In the case of `Cc1cc(NC(=O)CCC(=O)N(c2cccnc2)C(C(=O)NC2CCCC2)c2ccccc2)no1` (stereo not given), the AC50 was > 42 µM (inactive). `COc1ccc(/C=N\Nc2ccc([N+](=O)[O-])cc2)c(C(=O)O)c1OC` was tested, and the AC50 was > 42 µM (inactive). For `Cc1cc(C#Cc2c(-c3ccccc3)n(C)c3ccccc23)ccc1F`, the AC50 was > 42 µM (inactive). For `COc1ccc(-c2cn(-c3ccc(C)cc3)c(=O)n2CC(=O)Nc2ccc(OC)c(OC)c2)cc1`, the AC50 was > 42 µM (inactive). `O=C(NCC1CCCO1)c1nn2c(C(F)(F)F)cc(-c3cc(Br)cs3)nc2c1Br` (stereo not given) was tested, and the AC50 was > 42 µM (inactive). For `CCCn1nc(C(=O)NNC(=O)c2cc(S(=O)(=O)NC)ccc2Br)c2ccccc2c1=O`, the AC50 was > 42 µM (inactive). With `COc1ccc(Nc2cc(NCCCO)c([N+](=O)[O-])c3nonc23)cc1` the AC50 was > 42 µM (inactive).

— PubChem BioAssay AID463204 (Broad Institute, 2010)
